Molecules are shown by their SMILES.

A short description of experiment [1]: Metal reduction assay, Cu(II) to Cu(I) (BC/BCA indicator). In kind it is biochemical. Conditions: test compound 10 μM, Cu(II)-glycine 25 μM, PBS pH 7.4, 37° C., dark, one hour. Here is the method: (§1) Metal Reduction Assays—Assays were performed using a 96-well microtiter plate (Costar, Mass.). Test compounds from the kynurenine pathway (10 μM) or, as a positive control, ascorbic acid (ASC, 10 μM) were co-incubated with either Fe(III)-citrate (25 μM) and the Fe(II) indicator bathophenanthroline disulfonic acid (BP, 250 μM), or Cu(II)-glycine (25 μM) and the Cu(I) indicator bathocuproine disulfonic acid (BC) or bicinchoninic acid (BCA, 250 μM). Incubations were conducted in PBS, pH 7.4, at 37° C. in the dark for one hour. Absorbencies were then measured using a plate reader (SPECTRAmax Plus, Molecular Devices, CA) at the appropriate wavelengths: Fe(II)-BP complex at 535 nm (the known molar absorption coefficient, M535,=22140 M^−1 cm^−1), Cu(I)-BC complex at 483 nm, M483=12250 M^−1cm^−1), or Cu(I)-BCA complex at 562 nm, M562=7700 M^−1cm^−1). In control samples, absorbance from the metal ion and indicator in the absence of test compound and the absorbance of test compound in the presence of metal ions, but in the absence of indicator, were determined. The absorbencies from these controls were deducted from those obtained in the presence of the test compound, metal and indicator to yield the net absorbance (ΔA). Fe(II) or Cu(I) concentrations (μM) were calculated according to the formula: C(μM)=ΔA*10^6/Mλ.
The compounds comprising the kynurenine pathway (FIG. 1) were assayed for their ability to reduce […] and Cu(II) (FIG. 2A). […] Values represent the mean±SD for three independent measurements.

The nature of experiment [2]: Metal reduction assay, Fe(III) to Fe(II) (BP indicator). In kind it is biochemical. Conditions: test compound 10 μM, Fe(III)-citrate 25 μM, PBS pH 7.4, 37° C., dark, one hour. The protocol:
as §1, with “C(μM)=ΔA*10^6/Mλ. […]” for “C(μM)=ΔA*10^6/Mλ.”

Experiment [3] is described as follows: Cyclic voltammetry of kynurenine metabolites with Cu(II). In kind it is physicochemical. Conditions: metabolite 100 μM, cupric chloride 25 μM, PBS pH 7.4. The protocol: Cyclic Voltammetry—Cyclic voltammetry was performed at room temperature (22±2° C.) on ambient solutions using an EG&G PAR potentiostat, Model 273. The potentiostat was operated in Ramp Mode, generating a potential staircase waveform with a 0.25 mV step height. The potential window of +0.15 to −0.4V, in which Cu(I) is electroactive, but the metabolites are not, was scanned in both directions at a rate of 100 mV/sec. The current response was passed through a 5.3 Hz low pass filter. A minimum of three cycles were collected for each scan, ensuring the stability of the electrochemical response. The electrochemical cell consisted of an indium/tin oxide working electrode (Delta Technologies) with an active area of 0.32 cm^2, a platinum wire auxiliary electrode, and a Ag/AgCl (1 M KCl) reference electrode (Microelectrodes Inc.). Both the auxiliary and reference electrodes were positioned in the cell in close proximity to the working electrode. The working electrodes were pretreated with successive 10 minute sonications in Alconox (˜8 g/L), 95% ethanol, Milli-Q purified H2O (2×), and PBS (pH 7.4), followed by an overnight soak in PBS (pH 7.4). The ITO electrodes were subsequently “activated” immediately prior to use by successive cycling in PBS for three cycles in each of the following potential windows: +0.15 ? −0.4 V, +0.4 ? −0.4 V, and +1.0 ? −0.4 V. Cupric chloride (25 μM; Allied Chemical) was used as the Cu(II) source. Background voltammograms were obtained on each new electrode before testing the kynurenine pathway metabolites. PBS solutions of KYN, 3-HK, ANA, and 3-HAA (each at 100 μM) were separately scanned with and without added Cu(II) (25 μM). Each experiment also included a scan of Cu(II) (25 μM) in PBS without added test compound. All solutions were tested within minutes of being prepared. Each test was repeated to ensure the reproducibility of the results.
The voltammograms in FIGS. 3A–3D compare 3-HK and 3-HAA to their corresponding non-phenolic analogs, kynurenine (KYN) and anthranilic acid (ANA), in aqueous solutions of Cu(II) at pH 7.4. […] At potentials above +0.15 V, the metabolites undergo direct irreversible oxidation, a reaction that is not considered further here. Cyclic voltammetry of Cu(II) in PBS yielded a current response at ≈−100 mV due to reduction of the metal ion (scan “b” in each panel).

Experiment [4] can be described thus: Hydrogen peroxide assay (DCF fluorometric). It counts as biochemical. As to conditions: for hydrogen peroxide generated: ambient gas conditions, CHELEX-treated PBS, FIG. 4C. Here is the method:
Hydrogen Peroxide Assay—The fluorometric assay for hydrogen peroxide is based on the dichlorofluorescein diacetate (DCF) method (Molecular Probes, Eugene, Oreg.). The DCF solution (5 mM) in 100% ethanol was deacetylated in the presence of 0.01 M NaOH for 30 minutes and neutralized. Horseradish peroxidase (200 U/ml) was then added and the DCF concentration adjusted to 200 μM in PBS. The reaction solutions were carried out in PBS, pH 7.4, in a 96-well format plate (total volume=300 μL/well) and contained a test compound (KYN, 3-HK, 3-HAA, ANA, or ASC, each at 10 μM), deacetylated DCF (20 μM), and Cu(II)-glycine (1 μM) as indicated, incubated at 37° C. for 60 minutes. […] Abolition of the reading by co-incubation with catalase (1000 U/ml) was used for establishing H2O2 specificity. The fluorescent readings were recorded by a Packard FLURORCOUNT™ fluorescent plate reader with a 485 nm excitation filter and 530 nm emission filter. Concentrations were determined by comparison to a standard curve using reagent grade hydrogen peroxide in CHELEX™ chelating ion exchanae resin-treated PBS buffer, pH 7.4.
Reactions were conducted in the absence of added Cu(II), in the presence of added glycine-complexed Cu(II) (1 μM), in the presence of added glycine-complexed Cu(II) (1 μM) and catalase (1000 U/ml), or with added glycine-complexed Cu(II) (1 μM) and the copper chelator triethylenetetramine (TETA, 200 μM).

A short description of experiment [5]: Thiobarbituric acid-reactive substance (TBARS) assay for hydroxyl radical. As to conditions: reaction with Cu(II). In kind it is biochemical. An excerpt: Although two Fenton chemistry substrates, hydrogen peroxide and reduced redox-active metal, are produced by 3-HK and 3-HAA, evidence of the hydroxyl radical was not detected using the thiobarbituric acid-reactive substance assay (Huang, X. et al., Biochem. 38:7609–7616 (1999)) (data not shown).

Experiment [6] in a line: Superoxide assay (dihydroethidium fluorometric). Conditions: test compound 10 μM; for effect of Cu(II) on superoxide generation: Cu(II)-glycine 1 μM; for superoxide production: ambient oxygen, dark, 60 minutes. In kind it is biochemical. Here is the method:
Superoxide Assay—The fluorometric assay for superoxide is based upon the dihydroethidium (DHE, HYDROETHDNE™) method (Molecular Probes, Eugene, Oreg.) and used according to the manufacturer's instructions. DHE (1 mM) was freshly prepared in 100% argon-sparged DMSO. The reaction solutions were carried out in PBS, pH 7.4, under ambient gas conditions, in 96-well format plates and contained a test compound (KYN, 3-HK, 3-HAA, and ANA, each at 10 μM), DHE (100 μM), +/− Cu(II)-glycine (1 μM) and incubated at 37EC for 60 minutes. […] Abolition of the reading by co-incubation with superoxide dismutase (1000 U/ml) was used for establishing superoxide specificity. The fluorescent readings were recorded by a Packard FLUOROCOUNT™ fluorescent plate reader with a 510 nm excitation filter and 590 nm emission filter. Potassium superoxide dissolved in degassed DMSO was used as a positive control.

A further experiment addresses T1, α-crystallin (Bos taurus, UniProt P02470+P02510).
T1 sequence (P02470 1-173): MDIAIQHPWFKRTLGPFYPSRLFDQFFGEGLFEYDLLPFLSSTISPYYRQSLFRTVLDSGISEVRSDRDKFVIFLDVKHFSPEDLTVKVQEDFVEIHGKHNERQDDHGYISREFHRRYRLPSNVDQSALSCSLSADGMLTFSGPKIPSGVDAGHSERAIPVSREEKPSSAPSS
T1 sequence (P02510 1-175): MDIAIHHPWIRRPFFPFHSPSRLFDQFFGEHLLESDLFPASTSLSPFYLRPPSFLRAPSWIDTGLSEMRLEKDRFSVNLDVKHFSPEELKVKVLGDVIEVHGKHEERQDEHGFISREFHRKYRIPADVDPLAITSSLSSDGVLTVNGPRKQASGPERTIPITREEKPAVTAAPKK
Put plainly: α-Crystallin modification under longwave ultraviolet illumination. It counts as biochemical. As to conditions: exposure of α-crystallin in the presence of longwave ultraviolet illumination.

The nature of experiment [7]: Metal reduction capacity of tanned calf lens α-crystallin, Cu(II). In kind it is biochemical. Conditions: α-crystallin treated with 100 μM reductant, then dialysis. Here is the method:
Studies of Tanned Calf Lens Crystalin in Assay of Crystallin Protein for Metal Reduction Capacity—α-Crystallin (10 mg/ml) from calf lens was modified by reaction with 3-HK (100 μM), 3-HAA (100 μM), or ASC (100 μM) in PBS, ph 7.4, for 12 hours at 4° C. in the dark. Control samples were incubated with ascorbic acid (100 μM) or without added reductant. The tanning incubation solutions also contained triethylenetetramine (TETA, 200 μM) to prevent cross-linking of the protein. After incubation, free reductant was removed from the tanned α-crystallin preparations by exhaustive dialysis at 4EC in the dark utilizing PBS, pH 7.4, containing CHELEX™ 100 chelating ion exchange resin (BioRad, Hercules, Calif.). The various modified α-crystallin preparations (100 μg/ml) were co-incubated with either Cu(II)-glycine glycine (25 μM) or Fe(III)-citrate (25 μM) for one hour at 37° C. and assayed for metal reduction capacity using the BC and BP spectrophotometric assay as detailed above. Incubated and dialyzed α-crystallin (100 μg/ml) and untreated α-crystallin (100 μg/ml) preparations were used for procedural control.
3-HK: α-crystallin reduced nearly 100% of the available Cu(II) and approximately 20% of the available Fe(III). 3-HAA: α-crystallin reduced approximately 65% of the available Cu(II).

The nature of experiment [8]: Hydrogen peroxide assay (DCF fluorometric). It counts as biochemical. As to conditions: reacting with Cu(II), 37° C., dark.
A further experiment has as its target T2, αB-crystallin (Bos taurus, UniProt P02510).
T2 sequence (P02510 1-175): T1 sequence (P02510 1-175)
Put plainly: αB-crystallin cross-linking in total calf lens protein (Western blot). As to conditions: metabolite 10 μM, no added Cu(II), five days 37° C. dark. For orientation: A western blot detects proteins with antibodies after separation by electrophoresis.

As to `Nc1c(O)cccc1C(=O)O` [3-HAA, 3-hydroxyanthranilic acid], the “reduction of Cu(II)” value in [1] worked out at 100%. The “reduction of Fe(III)” value in experiment [2] was “approximately 50%”. The “Cu(II) reduction wave in presence of metabolite” value in experiment [3] is reported as “markedly decreased”. In addition, in [4], the “hydrogen peroxide generated relative to available Cu(II)” value was “approximately 3 fold” and the hydrogen peroxide generated result is reported as “approx. 3 μM”. Moreover, in experiment [5], the “evidence of the hydroxyl radical” value was “not detected”. Moreover, in experiment [6], the “effect of Cu(II) on superoxide generation” value is “strongly promoted” and the superoxide production result was “significant superoxide production”. The “capacity of altered α-crystallin to reduce metal and generate hydrogen peroxide” value on α-crystallin was “dramatically enhanced capacity”.

As to `O=C1O[C@H]([C@@H](O)CO)C(O)=C1O` [ASC, ascorbic acid, reference compound], in experiment [7], the “enhancement of α-crystallin reducing efficiency after treatment” value was “did not result in the enhancement”. Further, at α-crystallin, the “capacity of altered α-crystallin to reduce metal and generate hydrogen peroxide” value is given as “did not share this property”. In experiment [8], the “time dependence of hydrogen peroxide generation” value is given as “continuous over five hours”.

As to `O=C(O)c1cc(O)c2cccc(O)c2n1` [XA, xanthurenic acid], the “reduction of Cu(II)” value in experiment [1] is “approximately 40%”. The “reduction of Fe(III)” value in experiment [2] is given as “did not reduce”.

As for `Nc1ccccc1C(=O)C[C@H](N)C(=O)O` [KYN, L-kynurenine], the “Cu(II) reduction wave in presence of metabolite” value in experiment [3] was “largely unaffected”. In addition, the hydrogen peroxide generated entry in [4] was “approx. 0.3 μM”. Further, in experiment [6], the “effect of Cu(II) on superoxide generation” value is reported as “did not promote” and the superoxide production result is given as “negligible”. Also, the “capacity of altered α-crystallin to reduce metal and generate hydrogen peroxide” value at α-crystallin was “dramatically enhanced capacity”. The αB-crystallin cross-linking result at αB-crystallin is “does not induce”.

Values taken from US7166472B2, “Method for the identification of agents that inhibit or promote cataracts and uses thereof” (The General Hospital Corporation, priority 2000, dated 2007).
